This is an account of results in publication PMC9699193, “Activation of a Sweet Taste Receptor by Oleanane-Type Glycosides from Wisteria sinensis” (Molecules, 2022).

Broadly, the EC50 is the concentration needed to bring the measured effect to its halfway point.

The target of the assay is T1, TAS1R2/TAS1R3 sweet taste receptor (Homo sapiens, UniProt Q7RTX0+Q8TE23).
T1 construct: with TAS1R3
T1 sequence (Q8TE23 20-839): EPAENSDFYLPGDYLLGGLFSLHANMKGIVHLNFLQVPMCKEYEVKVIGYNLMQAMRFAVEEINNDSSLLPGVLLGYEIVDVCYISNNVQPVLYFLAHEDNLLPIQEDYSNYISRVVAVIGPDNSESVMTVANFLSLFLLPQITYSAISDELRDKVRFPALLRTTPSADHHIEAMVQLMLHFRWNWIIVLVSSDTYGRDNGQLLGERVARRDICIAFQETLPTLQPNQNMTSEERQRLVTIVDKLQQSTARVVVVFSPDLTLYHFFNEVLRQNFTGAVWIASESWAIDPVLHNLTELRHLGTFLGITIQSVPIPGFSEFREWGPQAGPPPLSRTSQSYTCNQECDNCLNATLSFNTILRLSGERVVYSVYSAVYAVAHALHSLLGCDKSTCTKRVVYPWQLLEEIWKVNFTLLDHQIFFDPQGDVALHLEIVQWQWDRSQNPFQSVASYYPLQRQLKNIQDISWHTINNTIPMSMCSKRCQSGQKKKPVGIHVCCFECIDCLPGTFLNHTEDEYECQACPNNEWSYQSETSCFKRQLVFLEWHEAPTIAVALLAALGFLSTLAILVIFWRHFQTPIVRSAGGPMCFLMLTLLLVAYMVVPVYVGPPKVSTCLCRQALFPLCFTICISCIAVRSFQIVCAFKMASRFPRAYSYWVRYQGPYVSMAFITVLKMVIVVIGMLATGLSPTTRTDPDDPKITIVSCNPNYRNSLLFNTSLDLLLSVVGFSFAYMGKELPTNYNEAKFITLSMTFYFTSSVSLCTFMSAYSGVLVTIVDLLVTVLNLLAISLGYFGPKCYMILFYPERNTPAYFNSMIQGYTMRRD
T1 sequence (Q7RTX0 21-852): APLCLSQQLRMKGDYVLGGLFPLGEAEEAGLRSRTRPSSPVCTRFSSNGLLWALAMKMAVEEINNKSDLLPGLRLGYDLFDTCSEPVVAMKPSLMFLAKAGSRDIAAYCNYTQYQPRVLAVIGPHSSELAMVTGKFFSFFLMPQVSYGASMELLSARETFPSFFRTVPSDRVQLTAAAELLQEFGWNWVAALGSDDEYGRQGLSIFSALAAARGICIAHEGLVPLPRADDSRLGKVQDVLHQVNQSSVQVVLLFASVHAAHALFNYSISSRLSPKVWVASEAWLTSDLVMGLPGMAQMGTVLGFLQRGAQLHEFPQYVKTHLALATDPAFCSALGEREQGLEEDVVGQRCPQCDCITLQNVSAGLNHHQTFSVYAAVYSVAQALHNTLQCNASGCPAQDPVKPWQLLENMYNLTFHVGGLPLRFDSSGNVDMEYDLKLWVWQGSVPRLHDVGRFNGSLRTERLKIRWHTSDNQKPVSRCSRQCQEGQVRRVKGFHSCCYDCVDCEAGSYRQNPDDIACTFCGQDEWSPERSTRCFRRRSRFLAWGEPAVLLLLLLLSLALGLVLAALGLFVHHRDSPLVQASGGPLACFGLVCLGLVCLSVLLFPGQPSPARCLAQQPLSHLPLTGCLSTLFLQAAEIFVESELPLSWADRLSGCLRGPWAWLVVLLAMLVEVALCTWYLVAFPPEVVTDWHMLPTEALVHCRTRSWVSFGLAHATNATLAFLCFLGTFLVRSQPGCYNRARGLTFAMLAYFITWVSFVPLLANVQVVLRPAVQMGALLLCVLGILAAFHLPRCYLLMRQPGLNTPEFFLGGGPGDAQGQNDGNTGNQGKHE
As to the kind of experiment: GCaMP6S calcium imaging in HEK293T-Gα[…]gust44 cells expressing TAS1R2/TAS1R3, mock-corrected. Format: cell-based.

Molecules are shown by their SMILES. Read-outs that look alike come from different tables or passages of the source.

For `C[C@@H]1O[C@@H](O[C@H]2[C@H](O[C@H]3C(O[C@H]4CC[C@@]5(C)C(CC[C@]6(C)C5CC=C5C7C[C@@](C)(CO)CC(=O)[C@]7(C)CC[C@]56C)[C@@]4(C)CO)O[C@H](C(=O)O)[C@@H](O)[C@@H]3O)OC[C@@H](O)[C@@H]2O)[C@H](O)[C@H](O)[C@H]1O` (stereo partly drawn) [compound 3, 3-O-α-L-rhamnopyranosyl-(1→2)-β-D-xylopyranosyl-(1→2)-β-D-glucuronopyranosywistariasapogenol A], the EC50 was 31.3 µM.

Consider `C[C@]1(CO)CC(=O)[C@]2(C)CC[C@]3(C)C(=CCC4[C@@]5(C)CC[C@H](OC6O[C@H](C(=O)O)[C@@H](O)[C@H](O)[C@H]6O[C@@H]6OC[C@@H](O)[C@H](O)[C@H]6O)[C@](C)(CO)C5CC[C@]43C)C2C1` (stereo partly drawn) [compound 2, 3-O-β-D-xylopyranosyl-(1→2)-β-D-glucuronopyranosylwistariasapogenol A], for which the EC50 is 35.9 µM.

As to `OC[C@H]1O[C@H](O[C@]2(CCl)O[C@H](CCl)[C@@H](O)[C@@H]2O)[C@H](O)[C@@H](O)[C@H]1Cl` [sucralose, reference compound], the EC50 (read-out: EC50 (converted)) is 40.2 µM.

Regarding `CC1(C)[C@@H](O[C@H]2O[C@H](C(=O)O)[C@@H](O)[C@H](O)[C@H]2O[C@@H]2O[C@H](C(=O)O)[C@@H](O)[C@H](O)[C@H]2O)CC[C@]2(C)[C@H]3C(=O)C=C4[C@@H]5C[C@@](C)(C(=O)O)CC[C@]5(C)CC[C@@]4(C)[C@]3(C)CC[C@@H]12` [glycyrrhizin], the EC50 is 41.3 µM.
